# Experimental data reported in PubChem BioAssay (NCI).
#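 Here, GI50 denotes the concentration required for 50% inhibition of growth. TGI: total growth inhibition.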
# Legend:
# Test in all cases: NCI-60 cell line screen, 384-well format
# OVCAR-5 ovarian = system: OVCAR-5 ovarian
# UACC-62 melanoma = system: UACC-62 melanoma
# HT29 colon = system: HT29 colon
# RXF 393 renal = system: RXF 393 renal
# MDA-MB-231 breast = system: MDA-MB-231 breast
# SK-OV-3 ovarian = system: SK-OV-3 ovarian
# U251 glioblastoma = system: U251 glioblastoma
# MDA-MB-468 breast = system: MDA-MB-468 breast
# A549 NSCLC = system: A549 NSCLC
# DU-145 prostate = system: DU-145 prostate
# HOP-62 NSCLC = system: HOP-62 NSCLC
# OVCAR-8 ovarian = system: OVCAR-8 ovarian
# SF-539 CNS = system: SF-539 CNS
# A498 renal = system: A498 renal
# SK-MEL-28 melanoma = system: SK-MEL-28 melanoma
# KM12 colon = system: KM12 colon
# HCT-15 colon = system: HCT-15 colon
# OVCAR-3 ovarian = system: OVCAR-3 ovarian
# BT-549 breast = system: BT-549 breast
# MCF7 breast = system: MCF7 breast
# 786-0 renal = system: 786-0 renal
# LOX IMVI melanoma = system: LOX IMVI melanoma
# HS 578T breast = system: HS 578T breast
# IGROV1 ovarian = system: IGROV1 ovarian
# SW-620 colon = system: SW-620 colon
# TK-10 renal = system: TK-10 renal
# SNB-75 CNS = system: SNB-75 CNS
# HCC-2998 colon = system: HCC-2998 colon
# SK-MEL-5 melanoma = system: SK-MEL-5 melanoma
# NCI-H23 lung = system: NCI-H23 lung
# OVCAR-4 ovarian = system: OVCAR-4 ovarian
# K-562 leukemia = system: K-562 leukemia
# EKVX NSCLC = system: EKVX NSCLC
# MDA-MB-435 melanoma = system: MDA-MB-435 melanoma
# HOP-92 NSCLC = system: HOP-92 NSCLC
# CAKI-1 renal = system: CAKI-1 renal
# SNB-19 CNS = system: SNB-19 CNS
# CCRF-CEM leukemia = system: CCRF-CEM leukemia
# NCI-H322M lung = system: NCI-H322M lung
# MOLT-4 leukemia = system: MOLT-4 leukemia
# ACHN renal = system: ACHN renal
# UACC-257 melanoma = system: UACC-257 melanoma
# NCI/ADR-RES ovarian = system: NCI/ADR-RES ovarian
# M14 melanoma = system: M14 melanoma
# NCI-H522 lung = system: NCI-H522 lung
# SN12C renal = system: SN12C renal
# COLO 205 colon = system: COLO 205 colon
# T-47D breast = system: T-47D breast
# MALME-3M melanoma = system: MALME-3M melanoma
# PC-3 prostate = system: PC-3 prostate
# NCI-H226 lung = system: NCI-H226 lung
# SF-268 CNS = system: SF-268 CNS
# HL-60(TB) leukemia = system: HL-60(TB) leukemia
# NCI-H460 NSCLC = system: NCI-H460 NSCLC
# UO-31 renal = system: UO-31 renal
# HCT-116 colon = system: HCT-116 colon
# SF-295 CNS = system: SF-295 CNS
# RPMI-8226 leukemia = system: RPMI-8226 leukemia
smiles,measurement,setting,value
CCOc1ccn(-c2ccc(F)cc2)c(=O)c1C(=O)Nc1ccc(Oc2ccnc(N)c2Cl)c(F)c1,GI50,OVCAR-5 ovarian,19.7 µM
same,TGI,OVCAR-5 ovarian,> 100 µM
same,GI50,UACC-62 melanoma,2.62 µM
same,TGI,UACC-62 melanoma,12.4 µM
same,GI50,HT29 colon,4.42 µM
same,TGI,HT29 colon,23.3 µM
same,GI50,RXF 393 renal,4 µM
same,TGI,RXF 393 renal,18.6 µM
same,GI50,MDA-MB-231 breast,9.78 µM
same,TGI,MDA-MB-231 breast,49.3 µM
same,GI50,SK-OV-3 ovarian,4.37 µM
same,TGI,SK-OV-3 ovarian,20.9 µM
same,GI50,U251 glioblastoma,16.3 µM
same,TGI,U251 glioblastoma,> 100 µM
same,GI50,MDA-MB-468 breast,3.97 µM
same,TGI,MDA-MB-468 breast,10.3 µM
same,GI50,A549 NSCLC,7.37 µM
same,TGI,A549 NSCLC,26.3 µM
same,GI50,DU-145 prostate,7.49 µM
same,TGI,DU-145 prostate,> 100 µM
same,GI50,HOP-62 NSCLC,8.81 µM
same,TGI,HOP-62 NSCLC,98.3 µM
same,GI50,OVCAR-8 ovarian,14.3 µM
same,TGI,OVCAR-8 ovarian,48.1 µM
same,GI50,SF-539 CNS,5.67 µM
same,TGI,SF-539 CNS,26.9 µM
same,GI50,A498 renal,5.04 µM
same,TGI,A498 renal,85.8 µM
same,GI50,SK-MEL-28 melanoma,5.1 µM
same,TGI,SK-MEL-28 melanoma,38.7 µM
same,GI50,KM12 colon,0.314 µM
same,TGI,KM12 colon,> 100 µM
same,GI50,HCT-15 colon,4.27 µM
same,TGI,HCT-15 colon,27.7 µM
same,GI50,OVCAR-3 ovarian,5.47 µM
same,TGI,OVCAR-3 ovarian,27.3 µM
same,GI50,BT-549 breast,8.41 µM
same,TGI,BT-549 breast,27.8 µM
same,GI50,MCF7 breast,11.2 µM
same,TGI,MCF7 breast,> 100 µM
same,GI50,786-0 renal,33.4 µM
same,TGI,786-0 renal,> 100 µM
same,GI50,LOX IMVI melanoma,5.57 µM
same,TGI,LOX IMVI melanoma,18.2 µM
same,GI50,HS 578T breast,5.13 µM
same,TGI,HS 578T breast,21.2 µM
same,GI50,IGROV1 ovarian,6.27 µM
same,TGI,IGROV1 ovarian,40.5 µM
same,GI50,SW-620 colon,12 µM
same,TGI,SW-620 colon,28.9 µM
same,GI50,TK-10 renal,16.2 µM
same,TGI,TK-10 renal,95 µM
same,GI50,SNB-75 CNS,15.4 µM
same,TGI,SNB-75 CNS,35.1 µM
same,GI50,HCC-2998 colon,24.3 µM
same,TGI,HCC-2998 colon,68.1 µM
same,GI50,SK-MEL-5 melanoma,2.99 µM
same,TGI,SK-MEL-5 melanoma,12.2 µM
same,GI50,NCI-H23 lung,2.64 µM
same,TGI,NCI-H23 lung,24.6 µM
same,GI50,OVCAR-4 ovarian,8.05 µM
same,TGI,OVCAR-4 ovarian,> 100 µM
same,GI50,K-562 leukemia,1.6 µM
same,TGI,K-562 leukemia,3.62 µM
same,GI50,EKVX NSCLC,9.83 µM
same,TGI,EKVX NSCLC,58.6 µM
same,GI50,MDA-MB-435 melanoma,6.2 µM
same,TGI,MDA-MB-435 melanoma,39.5 µM
same,GI50,HOP-92 NSCLC,5.06 µM
same,TGI,HOP-92 NSCLC,25.9 µM
same,GI50,CAKI-1 renal,4.4 µM
same,TGI,CAKI-1 renal,23.1 µM
same,GI50,SNB-19 CNS,22.4 µM
same,TGI,SNB-19 CNS,> 100 µM
same,GI50,CCRF-CEM leukemia,1.91 µM
same,TGI,CCRF-CEM leukemia,3.51 µM
same,GI50,NCI-H322M lung,29.3 µM
same,TGI,NCI-H322M lung,> 100 µM
same,GI50,MOLT-4 leukemia,1.44 µM
same,TGI,MOLT-4 leukemia,2.9 µM
same,GI50,ACHN renal,10.8 µM
same,TGI,ACHN renal,> 100 µM
same,GI50,UACC-257 melanoma,6.47 µM
same,TGI,UACC-257 melanoma,27.5 µM
same,GI50,NCI/ADR-RES ovarian,10.1 µM
same,TGI,NCI/ADR-RES ovarian,28.7 µM
same,GI50,M14 melanoma,2.95 µM
same,TGI,M14 melanoma,11.1 µM
same,GI50,NCI-H522 lung,4.35 µM
same,TGI,NCI-H522 lung,15.7 µM
same,GI50,SN12C renal,1.95 µM
same,TGI,SN12C renal,46.2 µM
same,GI50,COLO 205 colon,2.06 µM
same,TGI,COLO 205 colon,4.32 µM
same,GI50,T-47D breast,1.67 µM
same,TGI,T-47D breast,4.29 µM
same,GI50,MALME-3M melanoma,4.88 µM
same,TGI,MALME-3M melanoma,20.7 µM
same,GI50,PC-3 prostate,4.15 µM
same,TGI,PC-3 prostate,90.3 µM
same,GI50,NCI-H226 lung,9.81 µM
same,TGI,NCI-H226 lung,> 100 µM
same,GI50,SF-268 CNS,2.01 µM
same,TGI,SF-268 CNS,8.11 µM
same,GI50,HL-60(TB) leukemia,5.02 µM
same,TGI,HL-60(TB) leukemia,13.6 µM
same,GI50,NCI-H460 NSCLC,3.35 µM
same,TGI,NCI-H460 NSCLC,12.1 µM
same,GI50,UO-31 renal,8.63 µM
same,TGI,UO-31 renal,59.3 µM
same,GI50,HCT-116 colon,4.85 µM
same,TGI,HCT-116 colon,18.4 µM
same,GI50,SF-295 CNS,3.81 µM
same,TGI,SF-295 CNS,57.7 µM
same,GI50,RPMI-8226 leukemia,3.52 µM
same,TGI,RPMI-8226 leukemia,> 100 µM
